# Measured values reported in patent publication US4118491A, “7-Acyl-3-(sulfaminoalkyl substituted tetrazolylthiomethyl)cephalosporins, antibacterial compositions containing them and methods of treating bacterial infections with them” (SmithKline Corporation, priority 1976, dated 1978).
# Like-named read-outs stand apart in the source and are kept apart here.
# Columns and labels:
# Kleb. pneumo. SK 4200 [1] = assay: MIC in vitro, Kleb. pneumo. SK 4200; type: cell-based
# Procedure: (§1) The compounds of Formula I have antibacterial activity against both Gram-positive and Gram-negative organisms. Minimum inhibitory concentrations (MIC's) range from 0.2 to >200 μg/ml in in vitro testing.
# E. coli SK 12140 [2] = assay: MIC in vitro, E. coli SK 12140; type: cell-based; details: Escherichia coli
# Procedure: as §1
# [3] = system: Entero. aerog. ATTC 13048; assay: MIC in vitro, Entero. aerog. ATTC 13048; type: cell-based
# Procedure: as §1
# Kleb. pneumo. SK 4200 [4] = assay: In vivo mouse protection, Kleb. pneumo. SK 4200; details: sc, Kleb. pneumo. SK 4200, s.c.
# E. coli SK 12140 [5] = assay: In vivo mouse protection, E. coli SK 12140; details: Escherichia coli
# Procedure: as §1
# S. aureus SK 23390 = assay: MIC in vitro, S. aureus SK 23390; type: cell-based; details: Staphylococcus aureus
# Procedure: as §1
# Proteus morgani 179 = assay: MIC in vitro, Proteus morgani 179; type: cell-based
# Procedure: as §1
# S. aureus HH 127 = assay: MIC in vitro, S. aureus HH 127; type: cell-based; details: Staphylococcus aureus
# Procedure: as §1
# Strep. faecalis HH 34358 = assay: MIC in vitro, Strep. faecalis HH 34358; type: cell-based; details: for MIC: Enterococcus faecalis, HH34358, Strep. faecalis HH 34358
# Procedure: as §1
# E. coli HH 33779 = assay: MIC in vitro, E. coli HH 33779; type: cell-based; details: for MIC: Escherichia coli
# Procedure: as §1
# Pseudo. aerug. HH 63 = assay: MIC in vitro, Pseudo. aerug. HH 63; type: cell-based
# Procedure: as §1
# Shigella HH 117 = assay: MIC in vitro, Shigella HH 117; type: cell-based; details: for MIC: Shigella, HH117, Shigella HH 117
# Procedure: as §1
# [6] = system: Serrati A marc. ATTC 13880; assay: MIC in vitro, Serrati A marc. ATTC 13880; type: cell-based
# Procedure: as §1
# Entero. cloacae HH 31254 = assay: MIC in vitro, Entero. cloacae HH 31254; type: cell-based; details: Enterobacter cloacae
# Procedure: as §1
# Kleb. pneumo. SK 1200 = assay: MIC in vitro, Kleb. pneumo. SK 1200; type: cell-based
# Procedure: as §1
# Salmonella ATCC 12176 = assay: MIC in vitro, Salmonella ATCC 12176; type: cell-based; details: ATCC12176, Salmonella ATCC 12176
# Procedure: as §1
# S. villaluz SK 70390 = assay: MIC in vitro, S. villaluz SK 70390; type: cell-based
# Procedure: as §1
# [7] = SK12140, E. coli SK 12140, read-out: MIC in vitro
# [8] = Entero. aerog. ATTC 13048, read-out: MIC in vitro
# [9] = read-out: MIC in vitro, Entero. aerog. ATTC 13048
# [10] = SK12140, po, E. coli SK 12140, p.o.
# [11] = SK12140, sc, E. coli SK 12140, s.c.
# [12] = SK23390, S. aureus SK 23390, read-out: MIC in vitro
# [13] = HH33779, E. coli HH 33779, read-out: MIC in vitro
# [14] = HH31254, Entero. cloacae HH 31254, read-out: MIC in vitro
# [15] = read-out: MIC in vitro, Kleb. pneumo. SK 1200
# [16] = HH127, S. aureus HH 127, read-out: MIC in vitro
Structure (SMILES),MIC (Kleb. pneumo. SK 4200 [1]) [µg/mL],MIC (E. coli SK 12140 [2]; [7]) [µg/mL],"MIC [3, 8] [µg/mL]","MIC [3, 9] [µg/mL]",ED50 (E. coli SK 12140 [5]; [10]) [mg/kg],ED50 (E. coli SK 12140 [5]; [11]) [mg/kg],MIC (S. aureus SK 23390; [12]) [µg/mL],"MIC (S. aureus HH 127; HH127, read-out: MIC in vitro) [µg/mL]",MIC (Strep. faecalis HH 34358) [µg/mL],MIC (E. coli HH 33779; [13]) [µg/mL],MIC (Pseudo. aerug. HH 63) [µg/mL],MIC (Shigella HH 117) [µg/mL],MIC [6] [µg/mL],MIC (Entero. cloacae HH 31254; [14]) [µg/mL],MIC (Kleb. pneumo. SK 1200; [15]) [µg/mL],MIC (Salmonella ATCC 12176) [µg/mL],MIC (Proteus morgani 179) [µg/mL],MIC (S. aureus HH 127; [16]) [µg/mL],MIC (S. villaluz SK 70390) [µg/mL],further results
"O=C(O)C1=C(CSc2nnnn2CCNS(=O)(=O)O)CSC2C(NC(=O)[C@H](O)c3ccccc3)C(=O)N12 (stereo partly drawn) [Compound 1, 7-D-mandelamido-3-[1-(2-sulfaminoethyl)tetrazol-5-ylthiomethyl]-3-cephem-4-carboxylic acid]",1.6,0.8,50,6.3,50,0.46,0.8,3.1,100,3.1,> 200,0.4,100,1.6,0.4,–,–,–,–,MIC in vitro (Kleb. pneumo. SK 4200 [1]): 0.8 µg/mL; ED50 (Kleb. pneumo. SK 4200 [4]): 0.46 mg/kg; MIC in vitro (Proteus morgani 179): 3.1 µg/mL; MIC in vitro (Strep. faecalis HH 34358; Strep. faecalis HH 34358): 50 µg/mL; MIC in vitro (E. coli HH 33779; E. coli HH 33779): 1.6 µg/mL; MIC in vitro (Shigella HH 117; Shigella HH 117): 0.2 µg/mL; MIC in vitro (Kleb. pneumo. SK 1200; Kleb. pneumo. SK 1200): 0.2 µg/mL
"O=C(Cc1cccs1)NC1C(=O)N2C(C(=O)O)=C(CSc3nnnn3CCNS(=O)(=O)O)CSC12 (stereo not shown) [Compound 2, 7-(2-thienylacetamido)-3-[1-(2-sulfaminoethyl)tetrazol-5-ylthiomethyl]-3-cephem-4-carboxylic acid]",3.1,–,25,–,> 50,1.02,–,–,12.5,12.5,> 200,–,> 200,6.3,–,12.5,> 200,1.6,–,"MIC (E. coli SK 12140 [2]; SK12140, read-out: MIC in vitro): 3.1 µg/mL; MIC (S. aureus SK 23390; SK23390, read-out: MIC in vitro): 0.4 µg/mL; MIC (Kleb. pneumo. SK 1200; Kleb. pneumo. SK 1200, read-out: MIC in vitro): 0.8 µg/mL"
"O=C(Cn1cnnn1)NC1C(=O)N2C(C(=O)O)=C(CSc3nnnn3CCNS(=O)(=O)O)CSC12 (stereo not shown) [Compound 3, 7-(1-tetrazolylacetamido)-3-[1-(2-sulfaminoethyl)tetrazol-5-ylthiomethyl]-3-cephem-4-carboxylic acid]",0.8,0.8,–,3.1,–,1.56,3.1,3.1,50,–,> 200,0.4,200,–,0.4,0.4,200,–,> 200,"MIC (E. coli HH 33779; HH33779, read-out: MIC in vitro): 0.8 µg/mL; MIC (Entero. cloacae HH 31254; HH31254, read-out: MIC in vitro): 0.8 µg/mL"
"O=C(CSC(F)(F)F)NC1C(=O)N2C(C(=O)O)=C(CSc3nnnn3CCNS(=O)(=O)O)CSC12 (stereo not shown) [Compound 4, 7-trifluoromethylthioacetamido-3-[1-(2-sulfaminoethyl)tetrazol-5-ylthiomethyl]-3-cephem-4-carboxylic acid]",0.8,0.8,–,6.3,50,1.82,1.6,–,100,1.6,> 200,0.8,100,1.6,0.2,0.4,> 200,1.6,> 200,–
